# Legend:
# [1] = Body weight change as index of toxicity in MV-4-11 tumor-bearing mice; format: in vivo, male nude mice; conditions: up to Day 15
# Description: (§1) Anti-tumor Effect and body weight change in Various Dosing Regimens Human acute myelocytic leukemia (AML) cell line MV-4-11 cells (American Type Culture Collection CRL-9591™) were implanted in the right thorax of male nude mice (CLEA Japan, Inc.). After implantation of the tumor, the major axis (mm) and minor axis (mm) of the tumor were measured, and tumor volume (TV) was calculated for each mouse. Then, the mice were assigned to the following groups, Control group (○), Continuous Dosing Group (●: 100 mg/kg/day; ◊: 150 mg/kg/day) and 1-week ON+1-week OFF Dosing Group (▲: 200 mg/kg/day; ◆: 300 mg/kg/day), so that the average TV of each group was equivalent. The day in which the grouping (n=5) was conducted was taken as Day 0.
# 5-chloro-2-(N-((1S,2R)-2-(6-fluoro-2,3-dimetylphenyl)-1-(5-oxo-4,5-dihydro-1,3,4-o xadiazol-2-yl)propyl)sulfamoyl)benzamide (Compound A) was suspended in 5 mg/mL hypromellose solution to provide appropriate test samples for 100 mg/kg, 150 mg/kg, 200 mg/kg, and 300 mg/kg dosing regimen. Animals of the Control group were not treated. […]
# On the other hand, the body weight (BW) was measured on Days 4, 8, 11 and 15, and the average body weight change (BW change, %) relative to the body weight on Day 0 was calculated by the following formula, as an index of toxicity during the dosing period: BW change (%) = [(BW on Day n) - (BW on Day 0)] / (BW on Day 0) x 100.
# [2] = tested on: Human acute myelocytic leukemia (AML) cell line MV-4-11 cells; assay: Anti-tumor effect in MV-4-11 xenograft under various dosing regimens; format: in vivo, male nude mice; conditions: for effect of reducing tumor volume (relative tumor volume, RTV): Day 15, vs Control Group
# Description: as §1
# 5-chloro-2-(N-((1S,2R)-2-(6-fluoro-2,3-dimetylphenyl)-1-(5-oxo-4,5-dihydro-1,3,4-o xadiazol-2-yl)propyl)sulfamoyl)benzamide (Compound A) was suspended in 5 mg/mL hypromellose solution to provide appropriate test samples for 100 mg/kg, 150 mg/kg, 200 mg/kg, and 300 mg/kg dosing regimen. Animals of the Control group were not treated.
# To mice in the Continuous Dosing Group, 100 mg/kg/day or 150 mg/kg/day of Compound A was orally administered once daily from Day 1 to Day 14. The total dosage for mice in the Continuous Dosing Group administered 100 mg/kg/day (Group C-1) is 1400 mg/kg, and the total dosage for mice in the Continuous Dosing Group administered 150 mg/kg/day (Group C-2) is 2100 mg/kg.
# To mice in the 1-week ON+1-week OFF Dosing Group, 200 mg/kg/day or 300 mg/ kg/day of Compound A was orally administered once daily from Day 1 to Day 7, and not administered from Day 8 to Day 14, which corresponds to a resting period of 7 days (1 week) for recovery. The total dosage for mice in the 1-week ON+1-week OFF Dosing Group administered 200 mg/kg/day (Group I-1) is 1400 mg/kg, and the total dosage for mice in the 1-week ON+1-week OFF Dosing Group administered 300 mg/ kg/day (Group I-2) are 2100 mg/kg.
# On Days 4, 8, 11 and 15, using the following formula: TV (mm^3) = (major axis x minor axis^2) / 2, relative tumor volume (RTV) was calculated as an index of anti-tumor effect during the dosing period for each group (FIG. 1).
# [3] = molecular target: T1, RNR (Homo sapiens, UniProt P23921+P31350); conditions: background art; cited from earlier work
# T1 sequence (P23921 1-792): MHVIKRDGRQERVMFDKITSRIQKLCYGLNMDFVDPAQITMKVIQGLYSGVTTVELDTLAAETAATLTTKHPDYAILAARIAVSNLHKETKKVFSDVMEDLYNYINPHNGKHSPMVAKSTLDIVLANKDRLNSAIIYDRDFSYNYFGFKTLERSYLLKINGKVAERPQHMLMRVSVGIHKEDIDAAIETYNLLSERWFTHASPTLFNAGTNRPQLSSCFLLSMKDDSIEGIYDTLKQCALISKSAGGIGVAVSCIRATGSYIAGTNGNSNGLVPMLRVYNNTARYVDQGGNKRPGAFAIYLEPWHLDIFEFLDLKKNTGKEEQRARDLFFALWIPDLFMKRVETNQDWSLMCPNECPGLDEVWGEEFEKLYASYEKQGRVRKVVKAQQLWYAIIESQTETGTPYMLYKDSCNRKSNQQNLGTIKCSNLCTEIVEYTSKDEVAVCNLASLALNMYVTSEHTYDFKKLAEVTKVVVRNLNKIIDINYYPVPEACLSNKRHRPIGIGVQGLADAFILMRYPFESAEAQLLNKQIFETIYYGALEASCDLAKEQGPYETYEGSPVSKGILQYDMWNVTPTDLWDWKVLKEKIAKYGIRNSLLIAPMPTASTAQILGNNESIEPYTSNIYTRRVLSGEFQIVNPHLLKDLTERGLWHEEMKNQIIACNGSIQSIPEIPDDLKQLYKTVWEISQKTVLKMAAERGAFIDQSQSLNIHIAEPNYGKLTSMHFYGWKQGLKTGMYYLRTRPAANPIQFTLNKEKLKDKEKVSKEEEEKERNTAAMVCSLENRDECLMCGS
# T1 sequence (P31350 1-389): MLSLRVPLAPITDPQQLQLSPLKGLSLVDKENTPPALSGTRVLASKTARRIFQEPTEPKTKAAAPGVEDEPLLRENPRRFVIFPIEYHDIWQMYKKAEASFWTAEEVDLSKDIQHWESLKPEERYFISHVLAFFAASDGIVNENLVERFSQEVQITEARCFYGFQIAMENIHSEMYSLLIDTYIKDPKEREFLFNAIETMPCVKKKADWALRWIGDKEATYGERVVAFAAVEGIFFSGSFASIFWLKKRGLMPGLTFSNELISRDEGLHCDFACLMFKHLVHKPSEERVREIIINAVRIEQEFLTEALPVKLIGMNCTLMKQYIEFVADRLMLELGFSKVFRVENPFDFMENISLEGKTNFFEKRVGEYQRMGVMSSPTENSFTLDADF
# [4] = tested on: A673 cells; assay: Caspase induction analysis (Caspase-Glo 3/7) in A673 cells treated with siRNA against SLFN11; format: cell-based; conditions: A673 cells transfected with siRNA against SLFN11, 24 h treatment
# Description: (§2) A673 cells were transfected with 1 nM siRNAs for 24 h using Lipofectamine® RNAiMAX Reagent (Thermo Fisher Scientific Inc.) and then re-seeded onto a 96-well plate for cell proliferation assay and caspase induction assay and onto dishes for immunoblotting analysis. siRNAs were obtained from Thermo Fisher Scientific Inc. as follows: Silencer® Select Negative Control #1 siRNA (#4390843 used as siControl), SLFN11 Silencer® Select Pre-designed siRNA (#s40703 used as siSLFN11-1, and #s40704 as siSLFN11-2).
# Caspase induction analysis was performed as reported previously (Hasako., et al., ibid). Briefly, the cells with siRNAs for 24 h were seeded onto 96 well plate, incubated for24 h, and then treated with Compound A for 24 h. Caspase induction was detected by using the Caspase-Glo 3/7 assay (Promega). Relative caspase-3/7 activation was calculated by applying the correction with respect to cell number. The experiment was performed in triplicates.
# [5] = tested on: 22 cell lines; assay: Cell proliferation assay (CellTiter-Glo) and correlation with SLFN11 mRNA expression; format: cell-based; conditions: 10 micro mol/L, 3 days of exposure, Pearson's correlation
# From the text: The HEL, NUGC-3, and RPMI8226 cell lines were obtained from the Japanese Collection of Research Bioresources. The 786-O, CFPAC-1, DU145, HCC1599, HCC1806, HCC38, HCT116, HL-60, K-562, MSTO-211H, MV-4-11, NCI-H460, NCI-H2170, and THP-1 cell lines were obtained from the ATCC. The A2780 and COLO 792 cell lines were obtained from the European Collection of Authenticated Cell Cultures. The A549, A673, and MCF-7 cell lines were obtained from DS Pharma Biomedical Co., Ltd.
# Cell proliferation assay was performed as reported previously (Hasako, S., et al. Mol Cancer Ther 17, 1648-1658 (2018)). Briefly, cells were plated and incubated for 1 day, followed by 3 days of exposure to the compound. After exposure to Compound A, viable cells were detected by using the CellTiter-Glo luminescent cell viability assay (Promega). The experiment was performed in triplicates.
# Correlation analysis of SLFN11 expression and Compound A cytotoxicity was performed using Pearson’s correlation coefficient (P < 0.05) in JMP 13 software. The gene expression data of cell lines were available online CCLE (http://www.broadinstitute.org/ccle/home). Compound A cytotoxicity data from 22 cell lines in Table 5 were used for correlation analysis (data for correlation was not shown).
# [6] = tested on: A673 cells; assay: Cell proliferation assay in A673 cells treated with siRNA against SLFN11; format: cell-based; conditions: siSLFN11-1 and siSLFN11-2 vs siControl, 72 h treatment
# Description: as §2
# Cell proliferation assay was performed as reported previously (Hasako, et al., ibid.). Briefly, cells treated with siRNAs for 24 h were plated onto 96 well plate and incubated for 24 h, followed by 3 days of exposure to the compound. After compound exposure, viable cells were detected by using the CellTiter-Glo luminescent cell viability assay (Promega).
SMILES,"body weight change (BW change) ([1]; 1-week ON+1-week OFF Dosing Group (Groups I-1 and I-2), 200 or 300 mg/kg/day orally Day 1 to Day 7)","body weight change (BW change) ([1]; Continuous Dosing Group (Groups C-1 and C-2), 100 or 150 mg/kg/day orally Day 1 to Day 14)","effect of reducing tumor volume (relative tumor volume, RTV) ([2]; 1-week ON+1-week OFF Dosing Group, 200 or 300 mg/kg/day orally once daily Day 1 to Day 7, rest Day 8 to Day 14)","effect of reducing tumor volume (relative tumor volume, RTV) ([2]; Continuous Dosing Group, 100 or 150 mg/kg/day orally once daily Day 1 to Day 14)","effect of reducing tumor volume, Group I-1 compared with Group C-1 ([2]; total dosage 1400 mg/kg, I-1 200 mg/kg/day 1-week ON+1-week OFF vs C-1 100 mg/kg/day continuous)","effect of reducing tumor volume, Group I-2 compared with Group C-2 ([2]; total dosage 2100 mg/kg, I-2 300 mg/kg/day 1-week ON+1-week OFF vs C-2 150 mg/kg/day continuous)",RNR inhibitory activity [3],caspase-3/7 activation after SLFN11 knockdown [4],correlation between SLFN11 mRNA expression and relative cell growth (%) [5],cytotoxic effect (cell growth) after SLFN11 knockdown [6]
"Cc1ccc(F)c([C@@H](C)[C@H](NS(=O)(=O)c2ccc(Cl)cc2C(N)=O)c2n[nH]c(=O)o2)c1C [Compound A, 5-chloro-2-(N-((1S,2R)-2-(6-fluoro-2,3-dimetylphenyl)-1-(5-oxo-4,5-dihydro-1,3,4-oxadiazol-2-yl)propyl)sulfamoyl)benzamide]",shows drastic recovery in body weight,does not show satisfactorily recovery in terms of body weight loss,shows the effect of reducing tumor volume compared with Control Group,shows the effect of reducing tumor volume compared with Control Group,"tends to be higher than Group C-1, though the difference is not statistically significant",seems to be similar,potent,suppression of Compound A-induced caspase-3/7 activation,a significant correlation,SLFN11 knockdown significantly suppressed the cytotoxic effect
"NC(=O)NO [HU, hydroxyurea, reference compound]",–,–,–,–,–,–,weak,–,–,–

# From US20230338342A1, “METHODS OF TREATING RIBONUCLEOTIDE REDUCTASE-RELATED DISEASES WITH A RIBONUCLEOTIDE REDUCTASE INHIBITOR” (Taiho Pharmaceutical Co., Ltd., priority 2020, published 2023)
